Values after ≈ are worked out from the molar mass of the structure shown.
Assays:
Klebsiella pneumoniae = assay: In vitro antibacterial activity against Klebsiella pneumoniae NCTC-9632 bacteria was determined; type: functional
Pseudomonas aeruginosa [1] = assay: In vitro antibacterial activity against Pseudomonas aeruginosa NCTC-10490 bacteria was determined; type: functional
Escherichia coli = assay: In vitro antibacterial activity against Escherichia coli NIH JC-2 bacteria was determined; type: functional
Pseudomonas aeruginosa [2] = assay: In vitro antibacterial activity against Pseudomonas aeruginosa ATCC 10145 bacteria was determined; type: functional
Pseudomonas aeruginosa [3] = assay: Antibacterial activity against clinically isolated Pseudomonas aeruginosa 67
Mus musculus [4] = species: Mus musculus; assay: (§1) Protective effect on systemic infection in mice caused by clinically isolated Pseudomonas aeruginosa 58; type: functional
Mus musculus [5] = species: Mus musculus; assay: Protective effect on systemic infection in mice caused by clinically isolated Pseudomonas aeruginosa 67; type: functional
Pseudomonas aeruginosa [6] = assay: In vitro antibacterial activity against Pseudomonas aeruginosa 59 was determined; type: functional
Pseudomonas aeruginosa [7] = assay: In vitro antibacterial activity against IPM resistant Pseudomonas aeruginosa 56 was determined; type: functional
Pseudomonas aeruginosa [8] = assay: In vitro antibacterial activity against AZT resistant Pseudomonas aeruginosa 59 was determined; type: functional
Pseudomonas aeruginosa [9] = assay: In vitro antibacterial activity against CAZ resistant Pseudomonas aeruginosa 59 was determined; type: functional
Pseudomonas aeruginosa [10] = assay: In vitro antibacterial activity against CAZ resistant Pseudomonas aeruginosa 56 was determined; type: functional
Pseudomonas aeruginosa [11] = assay: In vitro antibacterial activity against IPM resistant Pseudomonas aeruginosa 59 was determined; type: functional
Pseudomonas aeruginosa [12] = assay: as §1; type: functional
Pseudomonas aeruginosa [13] = assay: In vitro antibacterial activity against Pseudomonas aeruginosa 47 was determined; type: functional
Pseudomonas aeruginosa [14] = assay: In vitro antibacterial activity against CAZ resistant Pseudomonas aeruginosa 69 was determined; type: functional
Pseudomonas aeruginosa [15] = assay: In vitro antibacterial activity against AZT resistant Pseudomonas aeruginosa 47 was determined; type: functional
Pseudomonas aeruginosa [16] = assay: In vitro antibacterial activity against Pseudomonas aeruginosa 56 was determined; type: functional
Pseudomonas aeruginosa [17] = assay: In vitro antibacterial activity against Pseudomonas aeruginosa 69 was determined; type: functional
Pseudomonas aeruginosa [18] = assay: In vitro antibacterial activity against AZT resistant Pseudomonas aeruginosa 56 was determined; type: functional
Pseudomonas aeruginosa [19] = assay: In vitro antibacterial activity against CAZ resistant Pseudomonas aeruginosa 47 was determined; type: functional
Pseudomonas aeruginosa [20] = assay: In vitro antibacterial activity against AZT resistant Pseudomonas aeruginosa 69 was determined; type: functional
Pseudomonas aeruginosa [21] = assay: In vitro antibacterial activity against IPM resistant Pseudomonas aeruginosa 69 was determined; type: functional
Pseudomonas aeruginosa [22] = assay: In vitro antibacterial activity against IPM resistant Pseudomonas aeruginosa 47 was determined; type: functional

| MIC (Klebsiella pneumoniae) [µg/mL] | MIC (Pseudomonas aeruginosa [1]) [µg/mL] | MIC (Escherichia coli) [µg/mL] | MIC (Pseudomonas aeruginosa [2]) [µg/mL] | SMILES | MIC (Pseudomonas aeruginosa [3]) [µg/mL] | ED50 (Mus musculus [4]) [mg/kg] | ED50 (Mus musculus [5]) [mg/kg] | further results |
| --- | --- | --- | --- | --- | --- | --- | --- | --- |
| ≤ 0.025 | ≤ 0.025 | 0.05 (≈ 0.0735 µM) | ≤ 0.025 | Nc1nc(/C(=N/OCc2cc(=O)c(O)cn2O)C(=O)N[C@@H]2C(=O)N3C(C(=O)O)=C(CSc4nnnn4CC(=O)O)SC[C@H]23)cs1 (stereo in doubt) |  |  |  |  |
| 0.1 (≈ 0.157 µM) | ≤ 0.025 | 0.2 (≈ 0.313 µM) | 0.39 (≈ 0.611 µM) | Nc1nc(/C(=N/OCc2cc(=O)c(O)cn2O)C(=O)N[C@@H]2C(=O)N3C(C(=O)O)=C(CSc4cnns4)SC[C@H]23)cs1 (stereo in doubt) |  |  |  |  |
| ≤ 0.025 | ≤ 0.025 | 0.2 (≈ 0.313 µM) | 0.1 (≈ 0.157 µM) | Nc1nc(/C(=N/OCc2cc(=O)c(O)cn2O)C(=O)N[C@@H]2C(=O)N3C(C(=O)O)=C(CSc4nncs4)SC[C@H]23)cs1 (stereo in doubt) |  |  |  |  |

| SMILES | MIC (Klebsiella pneumoniae) [µg/mL] | MIC (Pseudomonas aeruginosa [1]) [µg/mL] | MIC (Escherichia coli) [µg/mL] | MIC (Pseudomonas aeruginosa [2]) [µg/mL] | MIC (Pseudomonas aeruginosa [3]) [µg/mL] | ED50 (Mus musculus [4]) [mg/kg] | ED50 (Mus musculus [5]) [mg/kg] | further results |
| --- | --- | --- | --- | --- | --- | --- | --- | --- |
| CC(C)(O/N=C(\C(=O)N[C@@H]1C(=O)N2C(C(=O)[O-])=C(C[n+]3ccccc3)CS[C@H]12)c1csc(N)n1)C(=O)O [CEFTAZIDIME] | 0.05 (≈ 0.0915 µM) | 1.56 (≈ 2.85 µM) | 0.39 (≈ 0.714 µM) | 1.56 (≈ 2.85 µM) | 1.56 (≈ 2.85 µM) | 31.7 | > 100 | MIC (Mus musculus [4]): 3.13 µg/mL (≈ 5.73 µM) |
| Cc1nc(SCC2=C(C(=O)O)N3C(=O)[C@@H](NC(=O)/C(=N\OCc4cc(=O)c(O)cn4O)c4csc(N)n4)[C@H]3CS2)sc1CC(=O)O | 0.05 (≈ 0.0704 µM) | ≤ 0.025 | 0.1 (≈ 0.141 µM) | 0.05 (≈ 0.0704 µM) | 0.1 (≈ 0.141 µM) | 3.2 | 21.8 | MIC (Pseudomonas aeruginosa [6]): 1.56 µg/mL (≈ 2.2 µM); MIC (Pseudomonas aeruginosa [7]): 25 µg/mL (≈ 35.2 µM); MIC (Pseudomonas aeruginosa [8]): 25 µg/mL (≈ 35.2 µM); MIC (Pseudomonas aeruginosa [9]): 50 µg/mL (≈ 70.4 µM); MIC (Pseudomonas aeruginosa [10]): 12.5 µg/mL (≈ 17.6 µM); MIC (Pseudomonas aeruginosa [11]): 50 µg/mL (≈ 70.4 µM); MIC (Pseudomonas aeruginosa [12]): 0.05 µg/mL (≈ 0.0704 µM); MIC (Pseudomonas aeruginosa [13]): 1.56 µg/mL (≈ 2.2 µM); MIC (Pseudomonas aeruginosa [14]): 50 µg/mL (≈ 70.4 µM); MIC (Pseudomonas aeruginosa [15]): 25 µg/mL (≈ 35.2 µM); MIC (Pseudomonas aeruginosa [16]): 1.56 µg/mL (≈ 2.2 µM); MIC (Pseudomonas aeruginosa [17]): 3.13 µg/mL (≈ 4.41 µM); MIC (Pseudomonas aeruginosa [18]): 50 µg/mL (≈ 70.4 µM); MIC (Pseudomonas aeruginosa [19]): 50 µg/mL (≈ 70.4 µM); MIC (Pseudomonas aeruginosa [20]): 25 µg/mL (≈ 35.2 µM); MIC (Pseudomonas aeruginosa [21]): 50 µg/mL (≈ 70.4 µM); MIC (Pseudomonas aeruginosa [22]): 25 µg/mL (≈ 35.2 µM) |

Source: ChEMBL document CHEMBL1151012, “Synthesis and anti-pseudomonal activity of new 2-isocephems with a dihydroxypyridone moiety at C-7” (1994)
